Experimental data reported in ChEMBL document CHEMBL2331434, “Jatropholane-type diterpenes from Euphorbia sikkimensis” (J Nat Prod, 2013).
Blank lines part the entries; values can stand above or below the compound they belong to.

Tests used:
A549 = assay: Cytotoxicity against human A549 cells assessed as inhibition of cell viability after 48 hrs by MTT assay; type: functional, cell-based; conditions: A549, 48 h
Danio rerio [1] = species on record: Danio rerio; assay: Antiangiogenic activity against wild AB-type transgenic zebrafish embryo expressing green fluorescent protein-labeled VEGFR2 assessed as inhibition of growth of intersegmental vessels at 33.6 uM treated at 24 hrs post fertilization measured after 48 hrs by alkaline phosphatase staining; type: functional
Danio rerio [2] = species on record: Danio rerio; assay: Antiangiogenic activity against wild AB-type transgenic zebrafish embryo expressing green fluorescent protein-labeled VEGFR2 assessed as inhibition of growth of intersegmental vessels treated at 24 hrs post fertilization measured after 48 hrs by alkaline phosphatase staining; type: functional, organism-based

Structure (SMILES): C=C1CC[C@H]2[C@@H]([C@@H]3[C@@H]1C1=C(C[C@H](C)C1=O)C(=O)[C@H]3C)C2(C)C [SIKKIMENOID A]
IC50 (A549): > 10 µM

growth inhibition (GI) (Danio rerio [2]): Dose-dependent effect
Structure (SMILES): C=C1CC[C@H]2[C@@H]([C@@H]3[C@@H]1C1=C(C[C@@H](C)C1=O)C(=O)[C@H]3C)C2(C)C [SIKKIMENOID B]
growth inhibition (GI) (Danio rerio [1]): 41.1% | IC50 (A549): > 10 µM | IC50 (Danio rerio [2]): 43 µM

Structure (SMILES): C=C1CC[C@H]2[C@@H]([C@@H]3[C@@H]1C1=C(C[C@](C)(O)C1=O)C(=O)[C@H]3C)C2(C)C [SIKKIMENOID C]
IC50 (A549): > 10 µM

Structure (SMILES): C=C1CC[C@H]2[C@@H]([C@@H]3[C@@H]1C1=C(C[C@@](C)(O)C1=O)C(=O)[C@H]3C)C2(C)C [SIKKIMENOID D]
IC50 (A549): > 10 µM

Structure (SMILES): Clc1ccc(Nc2nnc(Cc3ccncc3)c3ccccc23)cc1 [VATALANIB]
IC50 (Danio rerio [2]): 0.23 µM
